We go through 7 compounds from patent publication US10730886B2, “Compound having effect of inhibiting platelet aggregation and salt thereof, and composition for preventing or treating thrombotic diseases, containing same” (SHIN POONG PHARMACEUTICAL CO., LTD., priority 2015, dated 2020).

Data set [1] relates to Human Platelet Rich Plasma (PRP). The data set can be described thus: Shear stress-induced platelet aggregation inhibition in human platelet rich plasma (PRP), cone-plate viscometer. It counts as cell-based. Conditions: for inhibition at 25 µM: Homo sapiens, Platelet. The method, then: 1-1. Measurement of Platelet Aggregation Inhibitory Effect Using Human Platelet Rich Plasma (PRP)
Blood was collected from the veins of healthy male volunteers who had not taken any medication for more than 2 weeks. All related studies were conducted under the approval of the Seoul National University Institutional Review Board (IRB No. 1305/001-016). During the whole process of study the use of glass containers or glass pipettes was avoided, and the experiments were performed at room temperature. To separate platelet rich plasma (PRP), the blood was collected with 3.2% sodium citrate as an anticoagulant. The whole blood was centrifuged at 150 g for 15 minutes to obtain the supernatant (PRP), and the residue was centrifuged at 2,000 g for 20 minutes to obtain platelet poor plasma (PPP). The number of platelets of the PRP thus obtained was counted with an optical microscope using a hemacytometer. PRP was diluted with PPP so as to include 3×10^8 platelets per 1 ml, and then used in the experiments. PRP was put on a cone-plate viscometer (RotoVisco 1, Thermo Fischer Scientific, USA), and shear stress was applied to the PRP at 37° C. for 3 minutes at a shear rate of 10,800 s^−1. In order to evaluate candidate substances, prior to the induction of platelet aggregation, 598.8 μl of PRP was treated with 1.2 μl of 25 μM candidate substance and incubated at 37° C. for 3 minutes using a thermomixer. After applying the shear stress, 20 μl of PRP was fixed in 280 μl of a suspension buffer containing 0.5% glutaraldehyde (134 mM NaCl, 2.9 mM KCl, 1.0 mM MgCl2.6H2O, 10.0 mM HEPES, 5.0 mM dextrose, 12.0 mM NaHCO3, 0.34 mM Na2HPO4, 0.3% BSA, pH 7.4). Then, the number of single platelets in the suspension was counted using a hemacytometer. The degree of inhibition by the candidate substance was calculated according to the following formula (1). The degree of inhibition was determined by the method described below. No shear stress-applied group served as a control, and only shear stress-applied group served as positive control. Degree of inhibition (%)=[(1−A/B)×100]/[(1−A/C)×100] Formula 1
A: Number of single platelets in the shear stress-applied sample after treatment with candidate substance
B: Number of single platelets in the control group with no shear stress applied
C: Number of single platelets in the positive control group with only shear stress applied

Data set [2] relates to human platelets. The data set can be described thus: Cytotoxicity in human platelets (LDH leakage). It counts as cell-based. Conditions: 3 min. The method, then:
5-2. Evaluation of Cytotoxicity of Candidate Substances Using Human Platelets
Leakage of lactate dehydrogenase (LDH) from the platelets was measured by a spectro-photometry method. 1.2 μl of the test substance was added to 598.8 μl of PRP, and the mixture was reacted at 37° C. for 3 minutes using a thermomixer. After the reaction, 100 μl of the sample was centrifuged at 12,000 g for 2 minutes, and 80 μl of the supernatant was taken and refrigerated until evaluation. The evaluation was performed within 24 hours. […] 25 μl of the sample was added to 1 ml of a pre-warmed Tris-EDTA NADH solution (56 mM Tris(hydroxymethyl) aminomethane, 5.6 mM EDTA, 0.17 mM β-NADH pH 7.4) and reacted for 5 minutes at 37° C. Then, 100 μl of a 14 mM pyruvate solution previously heated at 37° C. was added to the reaction mixture, and absorbance was immediately measured at a wavelength of 339 nm for 1 minute using a spectrophotometer (UV-Vis spectrophotometer, UV-2201, Shidamadzu, Japan). The rate of decrease in absorbance means the rate of oxidation of NADH, indicating the activity of LDH liberated from platelets. Total activity of LDH was measured by inducing lysis of platelets with 0.3% Triton X-100. The basal level of LDH (Control) was measured in plasma. The activity of each sample was measured as a percentage of the total activity of LDH.

The subject of data set [3] is carotid artery shear stress model. Description: Carotid artery shear stress model, amount of thrombus. It counts as in vivo, Sprague-Dawley rats. Conditions: rat; for Amount of thrombus (mg, Mean ± SEM): 25 mg/kg oral, twice a day for 3 days after operation; for shear stress-induced thrombogenesis compared with the control group: oral. The method, then: Vehicle (0.5% methylcellulose), clopidogrel (8 mg/kg), aspirin (50 mg/kg) or a candidate substance was orally administered to male Sprague-Dawley rats (250 to 300 g). 2 hours after administration, the rats were anesthetized by ketamine/rompun (ketamine/xylazine) cocktail 0.1 ml/100 g. Except for the normal control group, the right cervical skin of the experimental animals was incised to expose the common carotid artery. A surgical tube with a length of 1 mm and an inside diameter of 0.58 mm was inserted into the exposed carotid artery and tied with a single thread. The exposed site and the operation site were treated with an anti-adhesion agent, and then sutured for the animals to recover. After the surgery, vehicle, clopidogrel, aspirin or a candidate substance was orally administered to the rats twice a day for 3 days. On the fourth day, 2 hours after the final administration, urethane (100 mg/300 μl/100 g) was administered intraperitoneally to the rats to induce anesthesia, and the operation site was opened to separate a total of 1 cm of the blood vessel, 5 mm above and 5 mm below the surgical tube. The separated blood vessel was perfused with 0.2 ml of 0.9% saline at 0.3 ml/min to remove the remaining blood, and then maintained in 1 ml of protein lysis buffer (NaOH 2 g, Na2CO3 0.1 g in 500 ml D.W). After collected, the blood vessel thrombus was double-boiled in boiling water together with the protein lysis buffer. 200 μl of the reaction solution (10 ml bicinchoninic acid solution+200 μl 4% aqueous solution of copper sulfate) was added to 10 μl of the heated thrombus, and the mixture was reacted at 37° C. for 30 minutes and quantified with an ELISA reader (562 nm).

The mark [4] stands for this setting: 0.05 h, human PRP, 25 μM, shear rate 10,800 s^-1, 3 min, read-out: Degree of inhibition (%, Mean ± SEM).
[5] abbreviates: Table 1 summary bins, concentration and matrix not given, read-out: Inhibitory effect of shear stress-induced platelet aggregation.
Where [6] appears, read: human PRP, 25 μM, shear rate 10,800 s^-1, 3 min.

Each structure is given as a SMILES string. Read-outs that look alike come from different tables or passages of the source.

For the compound `O=C(c1ccc(O)c(O)c1)N1CCc2sccc2C1` [Example 1, (6,7-Dihydrothieno[3,2-c]pyridin-5(4H)-yl)(3,4-dihydroxyphenyl)methanone], the inhibition at 25 µM in data set [1] (setting [4]) and in data set [1] (setting [5]) was 20 to 30% in each case. Further, in data set [1] (setting [6]), the “Degree of inhibition (%, Mean ± SEM)” value came out at 23 ± 2%. For the same compound, the results for the “LDH leakage (%, Mean ± SEM)” value in data set [2] (25 μM), in data set [2] (100 μM) and in data set [2] (250 μM) were 2.7 ± 0.5%, 2.4 ± 0.2% and 2.7 ± 0.5%, respectively. Further, the “Amount of thrombus (mg, Mean ± SEM)” value in data set [3] turned out to be 0.065 ± 0.005 mg. Moreover, the “shear stress-induced thrombogenesis compared with the control group” value in data set [3] was “significantly, remarkably inhibited”.
Take `COc1cc(C(=O)N2CCc3sccc3C2)ccc1O` [Example 12, (6,7-Dihydrothieno[3,2-c]pyridin-5(4H)-yl)(4-hydroxy-3-methoxyphenyl)methanone]: the inhibition at 25 µM in data set [1] (setting [4]) and in data set [1] (setting [5]) was 20 to 30% throughout. Also, the “Degree of inhibition (%, Mean ± SEM)” value in data set [1] (setting [6]) is reported as 25 ± 6%. Moreover, the “LDH leakage (%, Mean ± SEM)” value in data set [2] (25 μM) is given as 2.3 ± 0.5%; in data set [2] (100 μM), 3.6 ± 0.1%; in data set [2] (250 μM) it was 3.6 ± 0.8%. Moreover, the “Amount of thrombus (mg, Mean ± SEM)” value in data set [3] was determined as 0.069 ± 0.007 mg. The “shear stress-induced thrombogenesis compared with the control group” value in data set [3] was “significantly, remarkably inhibited”.
As to `CCc1occc(=O)c1OC(=O)c1ccc(O)c(OC)c1` [Example 13, 2-Ethyl-4-oxo-4H-pyran-3-yl 4-hydroxy-3-methoxybenzoate], the inhibition at 25 µM in data set [1] (setting [4]) and in data set [1] (setting [5]) was 20 to 30% each time. Moreover, the “Degree of inhibition (%, Mean ± SEM)” value in data set [1] (setting [6]) amounted to 26 ± 6%. For the same compound, the “LDH leakage (%, Mean ± SEM)” value in data set [2] (25 μM) is 2.2 ± 0.4%; in data set [2] (100 μM) it was 4.0 ± 1.2%; in data set [2] (250 μM), 4.0 ± 0.3%. In data set [3], the “Amount of thrombus (mg, Mean ± SEM)” value is given as 0.064 ± 0.006 mg. Moreover, the “shear stress-induced thrombogenesis compared with the control group” value in data set [3] is recorded as “significantly, remarkably inhibited”.
In the case of `COc1cc(C(=O)Oc2c(C)occc2=O)ccc1O` [Example 14, 2-Methyl-4-oxo-4H-pyran-3-yl 4-hydroxy-3-methoxybenzoate], the inhibition at 25 µM in data set [1] (setting [4]) and in data set [1] (setting [5]) was at least 30% in each case. The “LDH leakage (%, Mean ± SEM)” value in data set [2] (25 μM) is reported as 4.8 ± 0.2%; in data set [2] (100 μM), 5.6 ± 0.9%; in data set [2] (250 μM), 4.2 ± 0.9%. In addition, the “Amount of thrombus (mg, Mean ± SEM)” value in data set [3] was 0.066 ± 0.006 mg. For the same compound, in data set [3], the “shear stress-induced thrombogenesis compared with the control group” value is “significantly, remarkably inhibited”.
On to `COc1ccc(NC(=O)c2ccc(O)c(OC)c2)c([N+](=O)[O-])c1` [Example 15, 4-Hydroxy-3-methoxy-N-(4-methoxy-2-nitrophenyl)benzamide], for which the inhibition at 25 µM in data set [1] (setting [4]) and in data set [1] (setting [5]) was 20 to 30% each time. The “Degree of inhibition (%, Mean ± SEM)” value in data set [1] (setting [6]) is 24 ± 8%. The entries for the “LDH leakage (%, Mean ± SEM)” value in data set [2] (25 μM), in data set [2] (100 μM) and in data set [2] (250 μM) were 2.7 ± 0.1%, 3.2 ± 0.4% and 3.1 ± 1.3%, respectively. The “Amount of thrombus (mg, Mean ± SEM)” value in data set [3] is 0.070 ± 0.006 mg. Also, the “shear stress-induced thrombogenesis compared with the control group” value in data set [3] is on record as “significantly, remarkably inhibited”.
Turning to `O=C(c1cc(O)ccc1O)N1CCc2sccc2C1` [Example 20, (6,7-Dihydrothieno[3,2-c]pyridin-5(4H)-yl)(2,5-dihydroxyphenyl)methanone], the inhibition at 25 µM in data set [1] (setting [4]) and in data set [1] (setting [5]) was at least 30% each time. The “LDH leakage (%, Mean ± SEM)” value is recorded as 4.1 ± 0.7% in data set [2] (25 μM), 5.2 ± 0.4% in data set [2] (100 μM) and 3.5 ± 1.2% in data set [2] (250 μM). For the same compound, in data set [3], the “Amount of thrombus (mg, Mean ± SEM)” value is listed as 0.068 ± 0.005 mg. In data set [3], the “shear stress-induced thrombogenesis compared with the control group” value is “significantly, remarkably inhibited”.
In the case of `O=C(c1cc(O)ccc1O)N1CCC(c2noc3ccc(F)cc23)CC1` [Example 23, (2,5-Dihydroxyphenyl)(4-(5-fluorobenzo[d]isoxazol-3-yl)piperidin-1-yl)methanone], the inhibition at 25 µM in data set [1] (setting [4]) and in data set [1] (setting [5]) was 20 to 30% in each case. Further, the “Degree of inhibition (%, Mean ± SEM)” value in data set [1] (setting [6]) is recorded as 28 ± 3%. The “LDH leakage (%, Mean ± SEM)” value came to 1.8 ± 0.1% in data set [2] (25 μM), 2.2 ± 1.3% in data set [2] (100 μM) and 3.2 ± 0.5% in data set [2] (250 μM). In data set [3], the “Amount of thrombus (mg, Mean ± SEM)” value was 0.071 ± 0.006 mg. In addition, in data set [3], the “shear stress-induced thrombogenesis compared with the control group” value is on record as “significantly, remarkably inhibited”.
